# Measurements: patent publication US6911207B1, “Cytotoxic T-cell epitopes of the papillomavirus L1-protein and use thereof in diagnostics and therapy” (MediGene Aktiengesellschaft, priority 1999, dated 2005)
# Key:
# RMA-S cells = type: cell-based, mouse
# [1] = tested on: MVA-L1Δc-infected B6 cells; type: cell-based, mouse
Substance,specific lysis of peptide-preincubated RMA-S target cells by spleen cells of L1-immunized mouse 1 (RMA-S cells),specific lysis of MVA-F6-infected (control virus) B6 target cells by spleen cells of the immunized mouse [1],specific lysis of MVA-L1Δc-infected B6 target cells by spleen cells of the immunized mouse [1]
ASNENMETM (Influenza Virus Type A) [AM control peptide],did not cause any distinct lysis,–,–
L1 VLPs: HPV16 L1 virus-like particles (Muller M. et al. 1997),–,not the MVA-F6-infected target cells,lysed the MVA-L1Δc-infected target cells
